{
  "source": "patent US20200102349A1",
  "about": "“PEPTIDE REAGENTS AND METHODS FOR DETECTION AND TARGETING OF DYSPLASIA, EARLY CANCER AND CANCER” (THE REGENTS OF THE UNIVERSITY OF MICHIGAN, priority 2014, published 2020)",
  "key": {"[1]": {"test_system": "vascular endothelial growth factor A (VEGFA)", "sequence (P15692 207-311 limits assumed)": "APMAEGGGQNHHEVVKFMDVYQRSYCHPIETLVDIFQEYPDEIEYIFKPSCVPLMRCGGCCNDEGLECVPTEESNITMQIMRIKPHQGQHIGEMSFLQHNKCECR", "conditions": "n=14 BE patients, topical and systemic; cited from earlier work"}, "[2]": {"assay": "Pharmacology/toxicology study in rats, single dose oral gavage", "assay_type": "in vivo", "conditions": "for Blood tests (days 2 and 15) / Clinical signs / Necropsy (days 2 and 15) / Observe (morbidity, mortality, injury, body weights, food and water consumption) / Urinalysis: oral gavage", "method": "A rigorous pharmacology/toxicology study was performed in animals (MPI Research) for each peptide to provide pre-clinical evidence for safety. A total of 24 male and 24 female rats (CD®[Crl:CD® (SD)] (Charles River) were used in each study. At 8 weeks of age, the animals were randomly assigned to 4 groups, including 3 treatment and 1 control. Dose levels of 0.0086, 0.026, and 0.86 mg/kg were used for QRH*-Cy5, and 0.186, 0.32, and 1.08 mg/kg were used for KSP*-IRDye800. The control group received 10 mL/kg of PBS as vehicle. The vehicle and test articles were administered by single dose oral gavage. Clinical signs, including morbidity, mortality, and injury, were monitored twice daily. Laboratory tests and necropsy were evaluated in 3 animals/sex/dose on days 2 and 15."}, "[3]": {"assay": "Stability of lyophilized cGMP peptides on storage", "assay_type": "physicochemical", "conditions": "KSP*-IRDye800 lyophilized, −20° C.; for Molecular: molecular weight by Q-TOF", "text": "QRHKPRE (SEQ ID NO: 1) was labeled with Cy5 via a GGGSK (SEQ ID NO: 18) linker to prevent steric hindrance. This sequence was selected using phage display methods for specific binding to EGFR.^22 KSPNPRF (SEQ ID NO: 26) was labeled with IRDye800 via a GGGSC (SEQ ID NO: 27) linker, hereafter KSP*-IRDye800. This sequence was identified using a structural model for specific binding to ErbB2.^23 The fluorophores used were chosen to minimize spectral overlap between absorbance and emission. QRH*-Cy5 and KSP*-IRDye800 were synthesized using current good manufacturing practices (cGMP) methods. Peptide stability was monitored by visual appearance, purity (HPLC), and molecular weight over the duration of the study."}, "[4]": {"assay": "Phase 1 first-in-human safety study, oral administration", "assay_type": "in vivo", "conditions": "n=25 human subjects, 0.5 mg or 1.2 mg", "method": "A first-in-human study was performed to establish clinical evidence of safety for each peptide. An Investigational New Drug (IND) application (sponsor DKT) was prepared, and submitted for review to the US Food and Drug Administration (FDA). […] The study protocols were reviewed and approved by the Institutional Review Board (IRB) at the University of Michigan. These studies, including NCT02574858 (QRH*-Cy5) and NCT03161418 (KSP*-IRDye800), were registered online at ClinicalTrials.gov. A total of n=25 subjects was recruited for each study. All enrolled patients provided written informed consent. A dose escalation study was performed. The first n=3 subjects were administered 0.5 mg of peptide reconstituted in 5 mL of normal saline (0.9%) per oral. […] An electrocardiogram (EKG) was performed and vital signs were monitored. […] No images were collected during the safety study."}, "ErbB2": {"target": "T1, ErbB2 (Homo sapiens, UniProt P04626)", "T1 construct": "topically administered into the distal esophagus using a standard spray catheter; from tissue; host or cells: distal esophagus mucosa of Barrett's patients, in vivo", "assay": "Multiplexed in vivo imaging of distal esophagus in patients, KSP*-IRDye800 channel", "method": "A multi-modal scanning fiber endoscope (mmSFE) was designed to collect fluorescence and reflectance concurrently. A custom fiber-coupled multi-laser system (SpectraTEC, Blue Sky Research) provides illumination at λex=638 and 785 nm concurrently through a single mode fiber (SMF) to excite QRH*-Cy5 and KSP*-IRDye800, respectively. A 0.4 mm diameter metal coated piezo tube actuator (Nagamine) generates a spiral scan pattern at an average maximum deflection angle of about 70°. Large core (500 μm diameter) multi-mode fibers (MMF) with high numerical aperture (NA=0.6, Mitsubishi Rayon) are arranged around the instrument periphery to maximize light collection.^38 The diameter and rigid length of the distal tip were designed to pass forward easily through the working channel of a standard upper endoscope.\nThe optics used to separate and collect fluorescence from each peptide was contained within the base station (VerAvanti). A notch filter (NF, # NF03-785E-25, Semrock) was used to attenuate the excitation beam at λ=785 nm. Reflectance at λ=[…] was deflected by a dichroic beam splitter (BS1, # FF652-Di02, Semrock) to a multi-pixel photon counter (MPPC1, SiPM, Hamamatsu) for detection. Fluorescence from QRH*-Cy5 was deflected by a second beam splitter (BS2, # Di02-R785, Semrock) centered at λ=785 nm through a bandpass filter (BPF, FF01-697/58, Semrock) that transmits between 668-726 nm for detection by MPPC2. Fluorescence from KSP*-IRDye800 passes through BS2 and long pass filter (LPF, # BLP01-785R, Semrock) with cutoff at λ=805 nm and is detected by MPPC3. Kinematic filter cubes (DFM1/M, ThorLabs) were used to mount and align the optics.\nConsecutive patients referred to Michigan Medicine for either evaluation or therapy of Barrett's neoplasia (LGD/HGD/EAC) were recruited. Inclusion criteria included: 1) history of Barrett's neoplasia, 2) medically able to tolerate upper endoscopy, and 3) age over 18. Exclusion criteria included: 1) history of esophagectomy and 2) on active chemotherapy or radiation protocol. The multiplexed imaging study was approved by the University of Michigan IRB, and was registered online at ClinicalTrials.gov (NCT03589443). […] Separate channels were used to record fluorescence images from QRH*-Cy5 and KSP*-IRDye800 and from reflectance at λ=638 nm. The conventional white light illumination was shut off during collection of fluorescence images to prevent interference. […]\nVideo streams with greater than 30 consecutive images (1 second) that had negligible artifacts, including debris, bubbles, pooling, and conventional white light, were extracted from the original recordings. Single frames from the target regions with high contrast and minimum motion blur and distortion were selected for intensity quantification. The frames were separated into two fluorescence channels and a co-registered reflectance image. Target/background (T/B) ratios were calculated for each fluorescence image as follows. […] Fluorescence regions with high intensity were segmented using the Chan-Vese algorithm,^39 where an active contour model was evolved iteratively to minimize the energy function, Eq. 1, defined by the weighted sum of the 1) boundary length, 2) area, and variance of intensity 3) inside and 4) outside of the segmented region. […]"}, "[5]": {"test_system": "Barrett's neoplasia (HGD/EAC)", "assay": "Multiplexed in vivo imaging of distal esophagus in patients, both channels combined", "parameters": "species or system human", "conditions": "topical, 5 minutes incubation", "method": "A multi-modal scanning fiber endoscope (mmSFE) was designed to collect fluorescence and reflectance concurrently. A custom fiber-coupled multi-laser system (SpectraTEC, Blue Sky Research) provides illumination at λex=638 and 785 nm concurrently through a single mode fiber (SMF) to excite QRH*-Cy5 and KSP*-IRDye800, respectively. A 0.4 mm diameter metal coated piezo tube actuator (Nagamine) generates a spiral scan pattern at an average maximum deflection angle of about 70°. […]\nThe optics used to separate and collect fluorescence from each peptide was contained within the base station (VerAvanti). […] Fluorescence from QRH*-Cy5 was deflected by a second beam splitter (BS2, # Di02-R785, Semrock) centered at λ=785 nm through a bandpass filter (BPF, FF01-697/58, Semrock) that transmits between 668-726 nm for detection by MPPC2. Fluorescence from KSP*-IRDye800 passes through BS2 and long pass filter (LPF, # BLP01-785R, Semrock) with cutoff at λ=805 nm and is detected by MPPC3. […]\nConsecutive patients referred to Michigan Medicine for either evaluation or therapy of Barrett's neoplasia (LGD/HGD/EAC) were recruited. […] Separate channels were used to record fluorescence images from QRH*-Cy5 and KSP*-IRDye800 and from reflectance at λ=638 nm. The conventional white light illumination was shut off during collection of fluorescence images to prevent interference. […]"}},
  "data": [
    {"substance": "Bevacizumab: antibody specific for VEGFA, repurposed for diagnostic imaging by labeling with IRDye800", "values": [
      {"measurement": "increase in detection of early lesions using fluorescence compared with HD-WLE and NBI", "setting": "[1]", "result": "about 33%"}
    ]},
    {"substance": "Lys^1-Ser^2-Pro^3-Asn^4-Pro^5-Arg^6-Phe^7-Gly^8-Gly^9-Gly^10-Ser^11-Cys^12(IRDye800) [KSP*-IRDye800]", "values": [
      {"measurement": "Blood tests (days 2 and 15)", "setting": "[2]; KSP*-IRDye800 0.186 mg/kg", "result": "NAD"},
      {"measurement": "Clinical signs", "setting": "[2]; KSP*-IRDye800 0.186 mg/kg", "result": "NAD"},
      {"measurement": "Necropsy (days 2 and 15)", "setting": "[2]; KSP*-IRDye800 0.186 mg/kg", "result": "NAD"},
      {"measurement": "Observe (morbidity, mortality, injury, body weights, food and water consumption)", "setting": "[2]; KSP*-IRDye800 0.186 mg/kg", "result": "NAD"},
      {"measurement": "Urinalysis", "setting": "[2]; KSP*-IRDye800 0.186 mg/kg", "result": "NAD"},
      {"measurement": "Blood tests (days 2 and 15)", "setting": "[2]; KSP*-IRDye800 0.32 mg/kg", "result": "NAD"},
      {"measurement": "Clinical signs", "setting": "[2]; KSP*-IRDye800 0.32 mg/kg", "result": "NAD"},
      {"measurement": "Necropsy (days 2 and 15)", "setting": "[2]; KSP*-IRDye800 0.32 mg/kg", "result": "NAD"},
      {"measurement": "Observe (morbidity, mortality, injury, body weights, food and water consumption)", "setting": "[2]; KSP*-IRDye800 0.32 mg/kg", "result": "NAD"},
      {"measurement": "Urinalysis", "setting": "[2]; KSP*-IRDye800 0.32 mg/kg", "result": "NAD"},
      {"measurement": "Blood tests (days 2 and 15)", "setting": "[2]; KSP*-IRDye800 1.08 mg/kg", "result": "NAD"},
      {"measurement": "Clinical signs", "setting": "[2]; KSP*-IRDye800 1.08 mg/kg", "result": "NAD"},
      {"measurement": "Necropsy (days 2 and 15)", "setting": "[2]; KSP*-IRDye800 1.08 mg/kg", "result": "NAD"},
      {"measurement": "Observe (morbidity, mortality, injury, body weights, food and water consumption)", "setting": "[2]; KSP*-IRDye800 1.08 mg/kg", "result": "NAD"},
      {"measurement": "Urinalysis", "setting": "[2]; KSP*-IRDye800 1.08 mg/kg", "result": "NAD"},
      {"measurement": "acute adverse effects in animal pharmacology/toxicology study (GLP)", "setting": "[2]; single dose oral gavage", "result": "No acute adverse effects"},
      {"measurement": "Molecular", "setting": "[3]; time 0", "result": 2397.6},
      {"measurement": "Molecular", "setting": "[3]; time 12", "result": 2397.5},
      {"measurement": "Molecular", "setting": "[3]; time 24", "result": 2397.6},
      {"measurement": "Molecular", "setting": "[3]; time 36", "result": 2397.6},
      {"measurement": "Purity (HPLC)", "setting": "[3]; time 0", "result": 98.8, "unit": "%"},
      {"measurement": "Purity (HPLC)", "setting": "[3]; time 6", "result": 98.8, "unit": "%"},
      {"measurement": "Purity (HPLC)", "setting": "[3]; time 12", "result": 98.7, "unit": "%"},
      {"measurement": "Purity (HPLC)", "setting": "[3]; time 18", "result": 98.9, "unit": "%"},
      {"measurement": "Purity (HPLC)", "setting": "[3]; time 24", "result": 98.9, "unit": "%"},
      {"measurement": "Purity (HPLC)", "setting": "[3]; time 30", "result": 98.7, "unit": "%"},
      {"measurement": "Purity (HPLC)", "setting": "[3]; time 36", "result": 98.9, "unit": "%"},
      {"measurement": "abnormalities in laboratory results, urinalysis, and EKG", "setting": "[4]", "result": "No abnormalities"},
      {"measurement": "adverse events (AE)", "setting": "[4]", "result": "no adverse events"},
      {"measurement": "mean (±SD) T/B ratio", "setting": "ErbB2; HGD (n=7) and EAC (n=6)", "result": "1.68±0.24"},
      {"measurement": "T/B ratio", "setting": "ErbB2; LGD (n=1)", "result": 1.14},
      {"measurement": "mean (±SD) T/B ratio", "setting": "ErbB2; SQ (n=3) and NDBE (n=6), topical, distal esophagus", "result": "1.28±0.14"},
      {"measurement": "Accuracy", "setting": "ErbB2; T/B ratio from KSP*-IRDye800 alone, HGD/EAC vs SQ/NDBE/LGD, LOOCV", "result": 83, "unit": "%"},
      {"measurement": "AUC", "setting": "ErbB2; T/B ratio from KSP*-IRDye800 alone, average of 1000 bootstrap samples", "result": 0.95},
      {"measurement": "fluorescence from regions of HGD and EAC in vivo", "setting": "[5]", "result": "Increased fluorescence intensities"}
    ]}
  ]
}
